Here are results for 2 compounds from patent US20090291066A1, “COMPOSITION AND METHOD OF TREATING FACIAL SKIN DEFECT” (priority 2008, published 2009).

Data set [1] relates to facial preadipocytes. The data set is described as follows: Differentiation of human primary facial preadipocytes (lipid droplet formation, oil red O). The class given is cell-based. The note with it: cell source not given. The procedure: Human primary preadipocytes from facial and abdominal skin samples, obtained with informed consent, were isolated and cultured following a published procedure (Crandall et al, Endocrinology 140:154-8, 1999). Briefly, samples from abdominal or facial operations were subjected to enzymatic digestion in Krebs-Ringer-bicarbonate buffer (pH 7.4) containing 6 mM glucose and 2 mg/mL collagenase. After this initial enzymatic digestion, the content of the flask was passed through a sterile, 230-micron stainless steel tissue sieve (Cellector, Bellco Glass Inc., Vineland, N.J.) into a 50-mL sterile, plastic test tube. […]
All differentiation agents (IBMX, dexamethasone, insulin, and rosiglitazone) were added to the culture media 24 hours after the cells were seeded. […] Subsequently, the cultures were incubated with oil red O (a dye that binds to neutral lipids); the dye was then extracted and quantified by spectrophotometry. […]
Human primary preadipocytes were isolated and cultured as described in Example 2. […] Subsequently, the cultures were incubated with oil red O (a dye that binds to neutral lipids); the dye was then extracted and quantified by spectrophotometry. […]

In data set [2] the test system is serum proteins. The conditions noted are these: in vivo; cited from earlier work.

In the case of `CCCCC/C=C\C/C=C\CCCCCCCC(=O)O` [Linoleic acid, linoleic acid], the adipogenesis of preadipocytes result in data set [1] (added in the media at 5-50 μM in addition to IBMX, insulin and dexamethasone) is recorded as “can enhance adipogenesis of preadipocytes”. Moreover, the “effect on the differentiation process” value in data set [1] (alone, without IBMX and dexamethasone) was “could not affect the differentiation process”.

For the compound `CN(CCOc1ccc(CC2SC(=O)NC2=O)cc1)c1ccccn1` (stereo not drawn) [Rosiglitazone, rosiglitazone], the “bound to serum proteins” value in data set [2] is reported as 99.8%.
